Results: patent US20220332774A1, “THERAPEUTIC MITOCHONDRIAL PEPTIDES” (priority 2019, published 2022)

Columns and labels:
[1] = test system: 3T3-L1 Mouse Adipocytes; assay: Free fatty acid levels in cultured 3T3-L1 mouse adipocytes (isoproterenol stimulated); format: cell-based; settings: free fatty acid in medium; 5 μM peptide, 20-22 h pre-incubation then 3 h with 0.1 nM isoproterenol; isoproterenol alone = 100%
How it was run: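 3T3-L1 cells differentiated 12 days, insulin withdrawn, then peptides added on day 13 at 5 μM (0.1% DMSO) for 20-22 h at 37° C. After 3 h in assay buffer, medium free fatty acids read at 540 nm. Values expressed as percent of 0.1 nM isoproterenol-alone control.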

[2] = test system: C2C12 Cells; assay: Glucose utilization in cultured C2C12 cells (myotubes); format: cell-based, mouse; settings: glucose concentration in medium relative to untreated cells; 5 μM peptide, 22 h
How it was run: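 Differentiated mouse myotubes (5 days in 2% horse serum) serum-starved 5 h, then treated 22 h at 37 °C with peptide at 5 μM final (0.1% DMSO) in low-glucose (1 g/L) DMEM. Glucose remaining in medium measured colorimetrically at 570 nm. Expressed as percent of untreated control, from 2–3 experiments in triplicate.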

[3] = test system: H4-IIE Cells; assay: Glucose production in cultured H4-IIE cells; format: cell-based, rat; settings: glucose concentration in medium relative to untreated cells; 5 μM peptide, 24 h
How it was run: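 Rat H4-IIE hepatoma cells primed overnight in glucose-free DMEM with 2 mM pyruvate and 10 mM lactate, then treated 24 h at 37 °C with 5 μM peptide (0.1% DMSO; concentration assumes ~2000 Da). Medium glucose measured colorimetrically at 570 nm. Values are percent of untreated-cell glucose production; 0.5-1 nM insulin served as inhibitor reference.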

Substance: 82 (MMGITMKKIITNAWAVTMTL) [compound 82]
- Percent of Isoproterenol Control Activity [1]: 98%
- Percent of Control Activity [2]: 105%
- Percent of Control Activity [3]: 114%

Substance: 83 (MMGMWLVGHYVLSC) [compound 83]
- Percent of Isoproterenol Control Activity [1]: 102%
- Percent of Control Activity [2]: 95%
- Percent of Control Activity [3]: 109%

Substance: 84 (MMKGKMKWKVKNRV) [compound 84]
- Percent of Isoproterenol Control Activity [1]: 99%
- Percent of Control Activity [2]: 95%
- Percent of Control Activity [3]: 108%

Substance: 85 (MMKLRLTPWRLPDPPNHH) [compound 85]
- Percent of Isoproterenol Control Activity [1]: 81%
- Percent of Control Activity [2]: 88%
- Percent of Control Activity [3]: 108%

Substance: 86 (MMLSWDDIIYGG) [compound 86]
- Percent of Isoproterenol Control Activity [1]: 98%
- Percent of Control Activity [2]: 87%
- Percent of Control Activity [3]: 108%

Substance: 87 (MMMFVYSAMKN) [compound 87]
- Percent of Isoproterenol Control Activity [1]: 101%
- Percent of Control Activity [2]: 97%
- Percent of Control Activity [3]: 109%

Substance: 88 (MMMTIECLHSHFPH) [compound 88]
- Percent of Isoproterenol Control Activity [1]: 95%
- Percent of Control Activity [2]: 87%
- Percent of Control Activity [3]: 112%

Substance: 89 (MMNSDSIIPS) [compound 89]
- Percent of Isoproterenol Control Activity [1]: 111%
- Percent of Control Activity [2]: 112%
- Percent of Control Activity [3]: 110%

Substance: 90 (MMSVWKVAVQTFNCYYYVLQALIN) [compound 90]
- Percent of Isoproterenol Control Activity [1]: 101%
- Percent of Control Activity [2]: 97%
- Percent of Control Activity [3]: 104%

Substance: 91 (MMTHPTTPLTINTKPP) [compound 91]
- Percent of Isoproterenol Control Activity [1]: 93%
- Percent of Control Activity [2]: 109%
- Percent of Control Activity [3]: 116%

Substance: 92 (MMTWSPWKPVATKNVEP) [compound 92]
- Percent of Isoproterenol Control Activity [1]: 99%
- Percent of Control Activity [2]: 93%
- Percent of Control Activity [3]: 124%

Substance: 93 (MMWKTIVVFQLQEHQWPQYAKLTP) [compound 93]
- Percent of Isoproterenol Control Activity [1]: 96%
- Percent of Control Activity [2]: 104%
- Percent of Control Activity [3]: 120%

Substance: 95 (MNHIMAKGHDG) [compound 95]
- Percent of Isoproterenol Control Activity [1]: 111%
- Percent of Control Activity [2]: 92%
- Percent of Control Activity [3]: 121%

Substance: 96 (MNHNQYYQSMLIINNHNSYSNKT) [compound 96]
- Percent of Isoproterenol Control Activity [1]: 100%
- Percent of Control Activity [2]: 91%
- Percent of Control Activity [3]: 130%

Substance: 97 (MNNSSSTVQP) [compound 97]
- Percent of Isoproterenol Control Activity [1]: 105%
- Percent of Control Activity [2]: 95%
- Percent of Control Activity [3]: 122%

Substance: 98 (MNPDQPHHLLLSLYTAIFSKPWW) [compound 98]
- Percent of Isoproterenol Control Activity [1]: 97%
- Percent of Control Activity [2]: 91%
- Percent of Control Activity [3]: 117%

Substance: 100 (MPIIRRMSWSP) [compound 100]
- Percent of Isoproterenol Control Activity [1]: 105%
- Percent of Control Activity [2]: 102%
- Percent of Control Activity [3]: 123%

Substance: 102 (MPLRLEWVQWGVGGWPWVCC) [compound 102]
- Percent of Isoproterenol Control Activity [1]: 120%
- Percent of Control Activity [2]: 102%
- Percent of Control Activity [3]: 108%

Substance: 103 (MPPKDKIWNLV) [compound 103]
- Percent of Isoproterenol Control Activity [1]: 108%
- Percent of Control Activity [2]: 98%
- Percent of Control Activity [3]: 97%

Substance: 105 (MPRKCWLYPSRTN) [compound 105]
- Percent of Isoproterenol Control Activity [1]: 91%
- Percent of Control Activity [2]: 114%
- Percent of Control Activity [3]: 118%

Substance: 106 (MPTNLPTLNST) [compound 106]
- Percent of Isoproterenol Control Activity [1]: 98%
- Percent of Control Activity [2]: 101%
- Percent of Control Activity [3]: 107%

Substance: 107 (MPTPILIFRSPWSLYSYPT) [compound 107]
- Percent of Isoproterenol Control Activity [1]: 104%
- Percent of Control Activity [2]: 110%
- Percent of Control Activity [3]: 96%

Substance: 108 (MQFTLATPKCYGPGA) [compound 108]
- Percent of Isoproterenol Control Activity [1]: 102%
- Percent of Control Activity [2]: 96%
- Percent of Control Activity [3]: 104%

Substance: 109 (MQNPPHSSPHSSPLPRYSYLSPLLY) [compound 109]
- Percent of Isoproterenol Control Activity [1]: 94%
- Percent of Control Activity [2]: 95%
- Percent of Control Activity [3]: 105%

Substance: 110 (MQPYRRYRFHPRLSMIYPTLQLM) [compound 110]
- Percent of Isoproterenol Control Activity [1]: 93%
- Percent of Control Activity [2]: 110%
- Percent of Control Activity [3]: 108%

Substance: 111 (MQRWFFMSLVVVVVRA) [compound 111]
- Percent of Isoproterenol Control Activity [1]: 89%
- Percent of Control Activity [2]: 101%
- Percent of Control Activity [3]: 91%

Substance: 112 (MQSGVLQSLAVTEIKYCNLL) [compound 112]
- Percent of Isoproterenol Control Activity [1]: 103%
- Percent of Control Activity [2]: 93%
- Percent of Control Activity [3]: 144%

Substance: 113 (MQTKSLQSPQ) [compound 113]
- Percent of Isoproterenol Control Activity [1]: 102%
- Percent of Control Activity [2]: 97%
- Percent of Control Activity [3]: 134%

Substance: 114 (MQWAILGLFVVG) [compound 114]
- Percent of Isoproterenol Control Activity [1]: 76%
- Percent of Control Activity [2]: 107%
- Percent of Control Activity [3]: 118%

Substance: 116 (MSGVRKEVSLL) [compound 116]
- Percent of Isoproterenol Control Activity [1]: 90%
- Percent of Control Activity [2]: 99%
- Percent of Control Activity [3]: 123%

Substance: 117 (MSKKIPATTMVLEWS) [compound 117]
- Percent of Isoproterenol Control Activity [1]: 98%
- Percent of Control Activity [2]: 91%
- Percent of Control Activity [3]: 121%

Substance: 118 (MSLSYLQDSTY) [compound 118]
- Percent of Isoproterenol Control Activity [1]: 98%
- Percent of Control Activity [2]: 83%
- Percent of Control Activity [3]: 126%

Substance: 119 (MSLTPHILPTMP) [compound 119]
- Percent of Isoproterenol Control Activity [1]: 97%
- Percent of Control Activity [2]: 109%
- Percent of Control Activity [3]: 122%

Substance: 120 (MSMPVLGWQWG) [compound 120]
- Percent of Isoproterenol Control Activity [1]: 95%
- Percent of Control Activity [2]: 98%
- Percent of Control Activity [3]: 118%

Substance: 121 (MSNMKTFSSA) [compound 121]
- Percent of Isoproterenol Control Activity [1]: 118%
- Percent of Control Activity [2]: 99%
- Percent of Control Activity [3]: 95%

Substance: 122 (MSNNMAFSTFKG) [compound 122]
- Percent of Isoproterenol Control Activity [1]: 113%
- Percent of Control Activity [2]: 103%
- Percent of Control Activity [3]: 97%

Substance: 123 (MSRNHSFCLNYMPIRFSLILFVVTH) [compound 123]
- Percent of Isoproterenol Control Activity [1]: 104%
- Percent of Control Activity [2]: 88%
- Percent of Control Activity [3]: 106%

Substance: 124 (MSSAWIIWFRLFSI) [compound 124]
- Percent of Isoproterenol Control Activity [1]: 113%
- Percent of Control Activity [2]: 96%
- Percent of Control Activity [3]: 97%

Substance: 125 (MSSDEFANTMPV) [compound 125]
- Percent of Isoproterenol Control Activity [1]: 115%
- Percent of Control Activity [2]: 109%
- Percent of Control Activity [3]: 96%

Substance: 126 (MSTHLPNYHTNLSYR) [compound 126]
- Percent of Isoproterenol Control Activity [1]: 108%
- Percent of Control Activity [2]: 110%
- Percent of Control Activity [3]: 87%

Substance: 127 (MSTINQQVIITLTVNPTQACS) [compound 127]
- Percent of Isoproterenol Control Activity [1]: 104%
- Percent of Control Activity [2]: 109%
- Percent of Control Activity [3]: 88%

Substance: 128 (MSWSNIEVVNPIVDMDS) [compound 128]
- Percent of Isoproterenol Control Activity [1]: 116%
- Percent of Control Activity [2]: 103%
- Percent of Control Activity [3]: 93%

Substance: 129 (MSYRAHTPKMLVMPFPY) [compound 129]
- Percent of Isoproterenol Control Activity [1]: 115%
- Percent of Control Activity [2]: 110%
- Percent of Control Activity [3]: 90%

Substance: 130 (MTAPVKLQGVWM) [compound 130]
- Percent of Isoproterenol Control Activity [1]: 110%
- Percent of Control Activity [2]: 103%
- Percent of Control Activity [3]: 97%
